Results reported in PubChem BioAssay (NCI).
“And” between values parts separate entries of the source, which are not always exact repeats. Identical values can stand only once.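 Grown in 96-well plates, cells were treated for 48 hours with each compound at five concentrations. Insufficient inhibition: endpoint recorded as highest concentration tested. Abbreviation: GI50, concentration required for 50% inhibition of growth. TGI marks complete inhibition of growth.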

Legend:
Assay in all cases: inhibition of tumour cell growth, NCI panel, 48 h
[1] = system: UO-31 renal
[2] = system: SF-268 CNS
[3] = system: DU-145 prostate
[4] = system: HT29 colon
[5] = system: HOP-62 NSCLC
[6] = system: COLO 205 colon
[7] = system: A549 NSCLC
[8] = system: M14 melanoma
[9] = system: HOP-92 NSCLC
[10] = system: SR leukemia

| Compound | GI50 [1] | TGI [1] | GI50 [2] | TGI [2] | GI50 [3] | TGI [3] | GI50 [4] | TGI [4] | GI50 [5] | TGI [5] | GI50 [6] | TGI [6] | GI50 [7] | TGI [7] | GI50 [8] | TGI [8] | GI50 [9] | TGI [9] | GI50 [10] | TGI [10] |
| --- | --- | --- | --- | --- | --- | --- | --- | --- | --- | --- | --- | --- | --- | --- | --- | --- | --- | --- | --- | --- |
| C#CCOc1cccc(Nc2ncnc3cc(NC(=O)C=C)ccc23)c1 | 3.51 µM | 75.6 µM | 12.6 µM | > 100 µM | 3.55 µM | > 100 µM | 3.66 µM | > 100 µM | 13.4 µM | > 100 µM | 5.41 µM | > 100 µM | 9.44 µM | > 100 µM | 6.46 µM | > 100 µM | 4.77 µM | 58.4 µM | 2.11 µM | > 100 µM |
| O=C1C(Cl)=C(Cl)C(=O)N1c1ccc(F)cc1 | – | 48.8 µM | – | > 77.3 µM | – | > 100 µM | – | 49.8 µM | – | 98.7 µM | – | 35.1 µM | – | > 100 µM | – | 39.5 µM | – | 35.8 µM | – | 47.2 µM |
| COc1cc2c(NC3CCN(C(C)C)CC3)nc(C3CCCCC3)nc2cc1OCCCN1CCCC1 | 14.1 µM | 28.1 µM | 3.37 µM | 14.1 µM | 4.75 µM | 17.1 µM | 1.49 µM | 3.86 µM | 3.22 µM | 10.1 µM | 1.66 µM | 3.1 µM | 3.38 µM | 13.3 µM | 1.71 µM | 3.26 µM | 3.48 µM | 15.6 µM | 3.25 µM | 10.2 µM |
| NC(Cc1cccnn1)C(=O)O (configuration not stated) | – | > 100 µM | – | > 100 µM | – | > 100 µM | – | > 100 µM | – | > 100 µM | – | > 100 µM | – | > 100 µM | – | > 100 µM | – | > 100 µM | – | > 100 µM |
| CN(C)c1cc2c(Nc3ccc4c(cnn4Cc4ccccc4)c3)ncnc2cn1 | 4.06 µM | > 18.4 µM | > 24.1 µM | > 25 µM | 5.54 µM | > 25 µM | 8.98 µM | > 25 µM | 8.35 µM | > 23.9 µM | 10.1 µM | > 25 µM | 7.49 µM | > 25 µM | 14.8 µM | > 25 µM | 8.82 µM | > 25 µM | 12.8 µM | > 25 µM |
| CSc1nnc(-c2cc3c([nH]c4ccccc43)c(-c3cccc(O)c3)n2)n1-c1ccc(C)cc1 | 1.93 µM | 29.1 µM | 3.83 µM | 48.1 µM | 4.57 µM | 77.6 µM | 3.39 µM | > 100 µM | 2.47 µM | 7.45 µM | 4.49 µM | 43.6 µM | 3.79 µM | 24.6 µM | 3.83 µM | > 100 µM | 1.75 µM | 7.59 µM | 2.09 µM | > 100 µM |
| CC(C)c1[nH]nc2c(NCc3ccc(-c4ccccn4)cc3)nc(SCCN)nc12 | 0.186 µM and 0.402 µM | – | 0.00684 µM | 7.12 µM and 5.24 µM | 0.0389 µM and 0.0416 µM | 11.8 µM | 0.00503 µM | 10.1 µM | 0.0247 µM and 0.0206 µM | 0.604 µM and 0.187 µM | – | 0.0342 µM | 0.0306 µM and 0.0159 µM | 12.2 µM | 0.0155 µM and 0.0181 µM | 0.151 µM and 1.16 µM | 0.0169 µM and 0.0222 µM | – | 0.0126 µM | 2.03 µM |
| C=C1C(=O)O[C@@H]2CC(CO)=C([C@@H](C)CCCO)[C@@H](OC(=O)/C(C)=C\C)[C@H]12 | – | > 65 µM | – | 50.2 µM | – | 27.7 µM | – | 26.6 µM | – | > 100 µM | – | 28.7 µM | – | > 71.9 µM | – | > 81.4 µM | – | 56.7 µM | – | 8.22 µM |
